Results reported in patent US7056938B1, “Method for scavenging radicals with urocanic acid, derivatives and analogues” (Academisch Ziekenhuis Bij De Univ., priority 1999, dated 2006).

Tests used:
[1] = hydroxyl-radical-generating systems with copper ions (Cu2+); type: physicochemical
Procedure: UCA isomers (10 or 40 μM) were oxidized with a hydroxyl-radical-generating system that consisted of various concentrations of ferrous ions (10–500 μM) and a fixed hydrogen peroxide concentration of 500 μM (the Fenton reagent), either in a sodium phosphate (10 or 20 mM) medium of pH 7.2, or in ultrapure water. In addition, two hydroxyl-radical-generating systems with copper ions (Cu^2+) were used, consisting of 50 μM Cu^2+ with either 500 μM hydrogen peroxide or 5 mM ascorbic acid.
Evaluation of the data was difficult with the ascorbate system, because several interfering peaks had occurred in the chromatograms, which were probably derived from ascorbic acid and its oxidation products.
When another hydroxyl-radical-generating system, based on copper ions (Cu^2+) was investigated, the combination of Cu^2+/ascorbic acid/hydrogen peroxide caused a large breakdown or trans-UCA (Table 3) and a moderate yield of UCA oxidation products, in favor of ImCOOH. […] For the situation in vivo, one must remember that the epidermal copper content is lower than iron (29).

[2] = Fenton oxidation of UCA (Fe2+ / hydrogen peroxide, HPLC); type: physicochemical; settings: for TRANS-UROCANIC ACID LEFT OVER: trans-UCA 40 μM, hydrogen peroxide 500 μM; for YIELD of FENTON OXIDATION PRODUCTS: sum of 8 major peaks
Procedure: Trans-UCA and cis-UCA were separated from each other and from several UCA oxidation products on a 4.6×250 mm Alltima C18 and Luna C18 reversed-phase column (Alitech, Deerfield, Ill. and Phenomenex, Torrence, Calif., resp.) with a flow of 0.8 mL/min, delivered by P-3500 HPLC-pumps (Pharmacia, Uppsala, Sweden). Samples of 20 to 200 μL were injected by a Promis II autosampler (Spark Holland, Emmen, The Netherlands) and chromatographic data were recorded on an SP 4270 integrator (Spectra Physics, San Jose, Calif.). Peak area data from samples were only processed under identical HPLC circumstances. A UV-detector (Applied Biosystems, model 759A, Foster City, Calif.) was set for 226 nm detection. Isocratic elution was performed with 10 mM ammonium formate buffer, containing 0.2–0.8 mM tetrabutylammonium(TBA)formate and 1% acetonitrile (pH 7.2). Collected fractions were acidified with formic acid up to a final concentration of 100 mM and passed through C18 could phase extraction columns (J T Baker, Deventer, The Netherlands) in order to remove TBA.
[…] In addition, two hydroxyl-radical-generating systems with copper ions (Cu^2+) were used, consisting of 50 μM Cu^2+ with either 500 μM hydrogen peroxide or 5 mM ascorbic acid.
In the next series of experiments we studied the Fenton oxidation of UCA, representing another natural oxidation process. Trans-UCA and cis-UCA isomers were Fenton oxidized by ferorus ions (Fe^2+) and hydrogen peroxide at physiological concentrations. The initial hydrogen peroxide concentration was 500 μM and the ferrous ion concentration was varied from 0 to 500 μM. In all Fenton oxidation reactions the degree of UCA-isomer breakdown was calculated from their reduced peak areas. The oxidation reaction must have been completed within 2 minutes for all reaction conditions, because no further breakdown was observed after prolonged incubation.
When the Fenton reaction was performed in water instead of phosphate buffer, the oxidative breakdown of trans-UCA was enhanced irrespective of the UCA concentration. The turbidity seen in reactions performed in phoshate buffer (10 mM) with high Fe^2+ concentration (>100 μM) was probably due to the formation of insoluble, iron phosphate, thereby reducing the free availability of Fe^2+. Table 3 summarizes the difference between water and phosphate medium for trans-UCA at an initial concentration of 40 μM with respect to its breakdown and the formation of Fenton-oxidation products. Similarly to the photo-oxidation experiments, the peak areas of the 8 major oxidation products were summed. […] A close resemblance was observed between the chromatographic patterns of UCA Fenton oxidation products (not shown) and those of UCA photo-oxidation products. Three of them has been identified (vide infra).
In another series of experiments we studied the Fenton oxidation of UCA, representing another natural oxidation process. The initial hydrogen peroxide concentration was 500 μM in all experiments and the ferrous ion concentration was varied from 0 to 400 μM. Four sets of conditions were compared: […] in phosphate buffer pH 7.2, 2. Fe^2+ in phosphate buffer plus EDTA, 3. Fe^2− without buffer with a initial pH of 5.5–5.3 and 4. Cu^2+ in phosphate buffer plus ascorbate. The degree of breakdown was similar for both UCA isomers.

O=C(O)/C=C/c1cnc[nH]1 [trans-Urocanic acid, Trans-urocanic acid]
trans-UCA left ([1]; Cu2+ (50 μM) and ascorbic acid (5 mM) without hydrogen peroxide): 3%
trans-UCA left ([1]; Cu2+ (50 μM) and hydrogen peroxide (500 μM), without ascorbic acid): 88%
TRANS-UROCANIC ACID LEFT OVER ([2]; Fe2+ 0 μM, in phosphate buffer 10 mM pH 7.2): 100 (±1) %
YIELD of FENTON OXIDATION PRODUCTS ([2]; Fe2+ 0 μM, in phosphate buffer): <10 A.U.
YIELD of FENTON OXIDATION PRODUCTS ([2]; Fe2+ 0 μM, in water): <10 A.U.
TRANS-UROCANIC ACID LEFT OVER ([2]; Fe2+ 0 μM, in water): 100 (±3) %
TRANS-UROCANIC ACID LEFT OVER ([2]; Fe2+ 50 μM, in phosphate buffer 10 mM pH 7.2): 97 (±1) %
YIELD of FENTON OXIDATION PRODUCTS ([2]; Fe2+ 50 μM, in phosphate buffer): <10 A.U.
YIELD of FENTON OXIDATION PRODUCTS ([2]; Fe2+ 50 μM, in water): 194 (±34) A.U.
TRANS-UROCANIC ACID LEFT OVER ([2]; Fe2+ 50 μM, in water): 77 (±11) %
TRANS-UROCANIC ACID LEFT OVER ([2]; Fe2+ 100 μM, in phosphate buffer 10 mM pH 7.2): 94 (±5) %
YIELD of FENTON OXIDATION PRODUCTS ([2]; Fe2+ 100 μM, in phosphate buffer): 27 (±5) A.U.
YIELD of FENTON OXIDATION PRODUCTS ([2]; Fe2+ 100 μM, in water): 272 (±6) A.U.
TRANS-UROCANIC ACID LEFT OVER ([2]; Fe2+ 100 μM, in water): 48 (±7) %
TRANS-UROCANIC ACID LEFT OVER ([2]; Fe2+ 250 μM, in phosphate buffer 10 mM pH 7.2): 83 (±3) %
YIELD of FENTON OXIDATION PRODUCTS ([2]; Fe2+ 250 μM, in phosphate buffer): 36 (±3) A.U.
YIELD of FENTON OXIDATION PRODUCTS ([2]; Fe2+ 250 μM, in water): 423 (±76) A.U.
TRANS-UROCANIC ACID LEFT OVER ([2]; Fe2+ 250 μM, in water): 19 (±8) %
TRANS-UROCANIC ACID LEFT OVER ([2]; Fe2+ 500 μM, in phosphate buffer 10 mM pH 7.2): 78 (±12) %
YIELD of FENTON OXIDATION PRODUCTS ([2]; Fe2+ 500 μM, in phosphate buffer): 49 (±9) A.U.
YIELD of FENTON OXIDATION PRODUCTS ([2]; Fe2+ 500 μM, in water): 511 (±35) A.U.
TRANS-UROCANIC ACID LEFT OVER ([2]; Fe2+ 500 μM, in water): <4%
broken down by the unbuffered Fenton oxidation system ([2]; initial UCA concentration 250 μM, unbuffered): 78%
